# Target: T1, human matrix metalloproteinase-2 (MMP-2; gelatinase A) (Homo sapiens, UniProt P08253)
# T1 construct: to prepare the enzymatically active mature form of the enzyme; endogenous in cells; host or cells: human dermal fibroblasts (secreted into culture supernatant)
# T1 sequence (P08253 110-660): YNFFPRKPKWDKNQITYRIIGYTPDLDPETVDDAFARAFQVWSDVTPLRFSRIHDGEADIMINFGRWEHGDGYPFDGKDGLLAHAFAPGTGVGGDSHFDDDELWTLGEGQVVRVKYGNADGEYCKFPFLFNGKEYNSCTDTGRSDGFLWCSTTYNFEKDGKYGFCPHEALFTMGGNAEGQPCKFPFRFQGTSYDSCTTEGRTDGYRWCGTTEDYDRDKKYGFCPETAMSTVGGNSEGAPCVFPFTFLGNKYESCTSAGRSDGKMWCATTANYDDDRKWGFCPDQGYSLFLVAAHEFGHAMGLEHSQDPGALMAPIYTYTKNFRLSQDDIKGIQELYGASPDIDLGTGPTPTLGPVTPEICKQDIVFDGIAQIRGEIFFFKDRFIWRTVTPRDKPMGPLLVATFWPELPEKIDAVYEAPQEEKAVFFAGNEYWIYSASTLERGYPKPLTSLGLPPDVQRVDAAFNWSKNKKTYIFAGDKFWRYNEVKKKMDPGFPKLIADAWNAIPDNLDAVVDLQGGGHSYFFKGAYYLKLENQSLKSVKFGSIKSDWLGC
# Test: Inhibition of human matrix metalloproteinase-2 (gelatinase A)
# Assay type: biochemical
# Settings: trypsin-activated MMP-2 from human dermal fibroblast culture supernatant; read-out: MMP-2 (50% inhibition)
# Text: MMP-2 is easily prepared by standard procedures from the culture medium of cultivated human fibroblasts in reasonable quantities, and is therefore readily available. […] A screening system based on the measurement of the proteolytic activity of MMP-2 was developed to analyse the inhibitory effects of the various inhibitors described in Table 1.
# To this end, human dermal fibroblasts were obtained and maintained in culture using standard methods. The cell-free culture supernatant containing the secreted pro-MMP-2 was treated with trypsin. The trypsin was inactivated with the specific active-site serine proteinase inhibitor Nα-p-tosyl-L-lysine-chloromethylketone (TLCK), and the active MMP-2 was partially purified by gel filtration on Sepharose 4B. The isolated MMP-2 was identified and characterized by the use of a commercially available immunoassay.
# A simple nonradioactive assay was developed to measure MMP-2 activity using gelatin as a substrate that allows both a large number of samples to be analysed in parallel and to generate kinetic data. Partially purified MMP-2 was incubated with a suitable dilution of gelatin under standardized conditions (time, buffer, pH, temperature, inhibitor, additives), and uncleaved gelatin was separated from degradation products by suction filtration through a nitrocellulose filter. High-molecular-weight gelatin is thereby bound to the nitrocellulose filter, and the low-molecular-weight gelatin-derived peptides pass through it. The nitrocellulose-bound gelatin can be stained with Ponceau S or Commassie Brilliant Blue protein stains, and the degree of staining quantified densitometrically using a commercially available electrophoresis gel documentation system supported by dedicated analytical software. The nitrocellulose filtration is conducted using a commercially available dot- or slot-blotting apparatus.
# The gelatinase assay described here has been validated by comparison with results obtained with an established collagenase assay using radioactive or fluorescently labeled collagen as substrate.
# The enzymatic cleavage of commercially available synthetic internally quenched fluorigenic peptide substrates such as 7-methylcoumarin-4-yl-acetyl-prolyleucyl-glycyl-leucyl-(dinitrophenyl-L-α,β-diaminopropionyl)-alanyl-arginylamide (Mca-Pro-Leu-Gly-Leu-Dap(Dnp)-Ala-Arg-NH2) at the scissile -Gly-Leu-peptide bond separates the fluorescent Mca group from the dinitrophenol quencher, resulting in a strong linear increase in fluorescence intensity that can be readily measured in a fluorimeter (λexitation328 nm, λemission 393 nm) over the first few minutes of the reaction. The specificity of the assay for matrix metalloproteinases is provided by the type I collagen-derived sequence -Pro-Leu-Gly-Leu- in the synthetic substrate, as well as by the incubation conditions. To test the efficacy of the synthetic collagenase/MMP inhibitors, the residual enzymatic activity remaining after an incubation of enzyme plus different amounts of inhibitor is measured at a fixed enzyme and substrate concentration. For each inhibitor, three test series at different fixed substrate concentrations were carried out. From the time-dependent increase in fluorescence intensity measured, the velocity (v) of the enzymatic activity can be calculated as increase in arbitrary fluorescence intensity units per minute. The inhibition constant Ki is calculated graphically by the method of Dixon (1953) by plotting the reciprocal of the reaction velocity 1/v on the ordinate, and the inhibitor concentration on the abscissa. The x-intercept of the linear plot is defined as minus K1 value.
# 1984 μl assay buffer (100 mM Tris-HCl pH 7,5, 100 mM NaCl, 10 mM CaCl2, 0,05% Brij 35) • 2 μl inhibitor dissolved in DMSO, or DMSO alone as a solvent control • 4 μl enzyme (MMP-2, MMP-9, or the catalytic domain of MMP-8) • 10 μl Mca-Pro-Leu-Gly-Leu-Dap(Dnp)-Ala-Arg-NH2 in DMSO Method • 1. […]
row,Structure (SMILES),IC50
1,"CC(S)CCn1c(=O)[nH]c(=O)c2ccccc21 (racemic) [Example 3, (R,S)-1-(3-mercaptobut-1-yl)-chinazolin-2,4(1H,3H)-dione]",13.2 µM
2,"CC(CCS)n1c(=O)[nH]c2ccccc2c1=O (racemic) [Example 18, (R,S)-3-[3-(1-methyl)-mercaptopropyl]-chinazolin-2,4(1H,3H)-dione]",8.3 µM
3,"O=c1[nH]c(=O)n(CCCS)c2ccccc12 [Example 4, 1-(3-mercaptopropyl)-chinazolin-2,4(1H,3H)-dione]",5 µM
4,"O=c1[nH]c(=O)n(CCS)c2ccccc12 [Example 5, 1-(2-mercaptoethyl)-chinazolin-2,4(1H,3H)-dione]",61.3 µM
5,"Cn1c(=O)c2ccccc2n(CCCS)c1=O [Example 7, 1-(3-mercaptoprop-1-yl)-3-methyl-chinazolin-2,4(1H,3H)-dione]",6 µM
6,"O=c1[nH]c2ccccc2c(=O)n1CCCCS [Example 12, 3-(4-mercaptobut-1-yl)-chinazolin-2,4(1H,3H)-dione]",8.3 µM
7,"Cn1c(=O)c2sccc2n(CCCS)c1=O [Example 14, 1-(3-mercaptoprop-1-yl)-3-methyl-thieno(3,2-d)-pyrimidin-2,4(1H,3H)-dione]",20 µM
8,"Cn1c(=O)c2sccc2n(CCS)c1=O [Example 17, 1-(2-mercaptoethyl)-3-methyl-thieno[3,2-d]-pyrimidine-2,4(1H,3H)-dione]",20 µM

# Reference: patent US6872727B1, “Polycyclic pyrimidine -2,4(1H,3H)-diones with functionalized alkyl residues at the 1- and/or 3-position(s); methods for their synthesis and pharmaceutical preparation” (Privates Institut fur Biomedizinische Forschung und Beratung, priority 1999, dated 2005)
